Reference: patent publication US9045403B2 (Coyote Pharmaceuticals, Inc., priority 2012, dated 2015)

Legend:
HSP70 = HSP70 expression in cortex and hippocampus by western blot after oral dosing; format: in vivo, rat; parameters: HSP70 expression, treatment average: scale not given here
Method: The time course of protein expression, as measured by western blot for HSP70, was determined in triplicate for hippocampus, and cortex tissue samples taken from each of 5 animals per group at each of four time points (24, 48, 72, and 96 h) after treatment with either PBS or 12 mg/kg CNS-102, administered orally. The average expression for each treatment group is calculated at each time point for each tissue using PROC MIXED in SAS and are tabulated, along with the difference (delta) between treatment averages and a p-value comparing the difference to zero, below.

Neuro2A cells = Neuro2A cells that extended neurites, with GGTI-298 (Example 18); format: cell-based, mouse; conditions: 0.1-1 μM, vehicle 0.0-0.20
Excerpt: After differentiation was induced, cells that extended neurites were counted.

[1] = tested on: Mouse Neuro2A neuroblastoma cells; assay: Neuro2A cells with neurites after GGTI-298 (Example 16); format: cell-based; conditions: 10 μM, 48 hrs
Method: Mouse Neuro2A neuroblastoma cells were cultured in DMEM supplemented with 10% FBS for 24 hrs. […] Then differentiation was induced by retinoic acid in DMEM supplemented with 2% FBS. The cell culture was incubated with a Geranylgeranyl Transferase inhibitor, GGTI-298. […]

[2] = mouse, in vivo, po, 12 mg/kg
Method: A total of 84 male mice (64 transgenic Sod1 mutant mice; 20 wild type mice) were included in the study. Dosing was administered daily beginning at postnatal day 38 (P38) via a single bolus oral gavage injection.
Blood and serum samples from days P70 and P100 were collected on three animals from each of the six treatment groups. Hematology measures were white blood cell count, red blood cell count, hemoglobin, hematocrit, mean corpuscular volume, mean corpuscular hemoglobin, mean corpuscular hemoglobin concentration, and platelets. Chemistry values were alanine aminotransferase, aspartate aminotransferase, albumin, total protein, gamma globulin, blood urea nitrogen, cholesterol, and glucose.

[3] = Cortex, 24 hours after 12 mg/kg oral
[4] = Cortex, 48 hours after 12 mg/kg oral
[5] = Cortex, 72 hours after 12 mg/kg oral
[6] = Cortex, 96 hours after 12 mg/kg oral
[7] = Hippocampus, 24 hours after 12 mg/kg oral
[8] = Hippocampus, 48 hours after 12 mg/kg oral
[9] = Hippocampus, 72 hours after 12 mg/kg oral
[10] = Hippocampus, 96 hours after 12 mg/kg oral

Question: Which results are given for `CC(=O)CC/C=C(\C)CC/C=C(\C)CC/C=C(\C)CCC=C(C)C` [CNS-102]?
Answer: HSP70 expression, delta CNS-PBS (HSP70; [3]): 0.24; HSP70 expression, treatment average (HSP70; [3]): −0.016; HSP70 expression, delta CNS-PBS (HSP70; [4]): 0.11; HSP70 expression, treatment average (HSP70; [4]): −0.45; HSP70 expression, delta CNS-PBS (HSP70; [5]): 0.13; HSP70 expression, treatment average (HSP70; [5]): 0.14; HSP70 expression, delta CNS-PBS (HSP70; [6]): 0.19; HSP70 expression, treatment average (HSP70; [6]): 0.04; HSP70 expression, delta CNS-PBS (HSP70; [7]): −0.088; HSP70 expression, treatment average (HSP70; [7]): −0.159; HSP70 expression, delta CNS-PBS (HSP70; [8]): 0.2; HSP70 expression, treatment average (HSP70; [8]): 0.02; HSP70 expression, delta CNS-PBS (HSP70; [9]): 0.14; HSP70 expression, treatment average (HSP70; [9]): −0.06; HSP70 expression, delta CNS-PBS (HSP70; [10]): 0.17; HSP70 expression, treatment average (HSP70; [10]): −0.32; Mean of cell numbers (Arbitrary units) (Neuro2A cells): 0.45-0.65 Arbitrary units; Mean of cell numbers (Arbitrary units) [1]: 0.738 Arbitrary units; ABSOLUTE BASOPHIL [2]: 0 per mm^3; BASOPHIL (%) [2]: 0.0%; CALCIUM [2]: 7.7 mg/dL; CREATININE [2]: <1 mg/dL; DIRECT BILIRUBIN [2]: 0.0 mg/dL; EOSINOPHIL (%) [2]: 1.5%; HCT [2]: 46.0%; INDIRECT BILIRUBIN [2]: 0.0 mg/dL; LYMPHOCYTE (%) [2]: 84.0%; MONOCYTE (%) [2]: 0.8%; NRBC (per 100 WBC) [2]: 0.0 per 100 WBC; PHOSPHORUS [2]: 5.7 mg/dL; PLATELET COUNT (Thousands) [2]: 1128.6 Thousands; RBC (Millions) [2]: 8.8 Millions; TOTAL BILIRUBIN [2]: 0.0 mg/dL; WBC (thousands) [2]: 4.7 thousands; blood and neurology examinations (in words) [2]: no abnormalities in blood and neurology examinations
